Test in all cases: MIC, broth microdilution
Assay type in all cases: cell-based, S. aureus
What all share (settings): Staphylococcus aureus
In general terms: Broth dilution looks for growth in wells or tubes with falling amounts of substance.

The test system of assay [1] is MRSA (QA-11.2). Here is the method:
(§1) For the determination of minimum inhibitory concentrations (MIC), the broth microdilution method was used in 96-well plate format, according to the guidelines of the Clinical and Laboratory Standards Institute and the recommendations of the European Committee on Antimicrobial Susceptibility Testing (EUCAST). The dilutions of the bacterial suspension of the specific bacterial strain, corresponding to the 0.5 McFarland turbidity standard, were prepared with […] Mueller–Hinton broth with TES (Thermo Fisher Scientific) to obtain an end inoculum of 10^5 CFU/mL. The compounds were dissolved in DMSO and mixed with the inoculum. […] The MIC was determined as the lowest concentration of antibiotic that prevented visible bacterial growth. Tetracycline was used as a positive control on each test plate.

In assay [2] the test system is MRSA (QA-11.7). Here is the method:
as §1

Assay [3] deals with MRSA(QA-12.1). The protocol: as §1
Setting [4] is: Table S3, read-out: MIC (μM) MRSA (QA-11.2).
The mark [5] stands for this setting: Table S3, read-out: MIC (μM) MRSA (QA-11.7).
The mark [6] stands for this setting: strain resistant to cefoxitin, ciprofloxacin, clindamycin, erythromycin, tetracycline, thiamulin, trimethoprim, read-out: MIC MRSA (QA-11.7).
Where [7] appears, read: Table S3, read-out: MIC (μM) MRSA(QA-12.1).
The mark [8] stands for this setting: strain resistant to cefoxitin, gentamicin, kanamycin, rifampicin, streptomycin, sulfamethoxazole, tetracycline, read-out: MIC MRSA(QA-12.1).

Read-outs that look alike come from different tables or passages of the source.

The term MIC denotes the lowest concentration found to suppress growth. `COc1ccc2nccc(OCC3CCC(NCc4ccc(C)cc4)CC3)c2n1` (stereo not drawn) [Compound 6]: the MIC amounted to 1.28 µM in assay [1] (setting [4]); 0.5 µg/mL in assay [1] (read-out: MIC MRSA (QA-11.2)); 2.56 µM in assay [2] (setting [5]); 1 µg/mL in assay [2] (setting [6]); 5.12 µM in assay [3] (setting [7]); 2 µg/mL in assay [3] (setting [8]).

With `COc1ccc2nccc(C(O)CC3CCC(NCc4ccc(C)cc4)CC3)c2n1` (stereo not drawn) [Compound 8, 1-(6-Methoxy-1,5-naphthyridin-4-yl)-2-(4-((4-methylbenzyl)amino)cyclohexyl)ethan-1-ol], the MIC in assay [1] (setting [4]) turned out to be 0.082 µM; in assay [1] (read-out: MIC MRSA (QA-11.2)), 0.032 µg/mL; in assay [2] (setting [5]), 0.32 µM; in assay [2] (setting [6]), 0.125 µg/mL; in assay [3] (setting [7]), 0.161 µM; in assay [3] (setting [8]), 0.063 µg/mL.

Take `COc1ccc2nccc(OCC3CCC(NCc4ccc(C)cc4)CO3)c2n1` (stereo not drawn) [Compound 7, 6-(((6-Methoxy-1,5-naphthyridin-4-yl)oxy)methyl)-N-(4-methylbenzyl)tetrahydro-2H-pyran-3-amine]: the MIC in assay [1] (setting [4]) was determined as 0.64 µM; in assay [1] (read-out: MIC MRSA (QA-11.2)), 0.25 µg/mL; in assay [2] (setting [5]), 2.56 µM; in assay [2] (setting [6]) it was 1 µg/mL; in assay [3] (setting [7]) it was 1.28 µM; in assay [3] (setting [8]), 0.5 µg/mL.

For `COc1ccc2nccc(CCN3CCC(NCc4ccc(C)cc4)CC3)c2n1` [Compound 5, 1-(2-(6-Methoxy-1,5-naphthyridin-4-yl)ethyl)-N-(4-methylbenzyl)piperidin-4-amine], the MIC in assay [1] (setting [4]) stood at 0.082 µM; in assay [1] (read-out: MIC MRSA (QA-11.2)), 0.032 µg/mL; in assay [2] (setting [5]), 0.041 µM; in assay [2] (setting [6]), 0.016 µg/mL; in assay [3] (setting [7]), 0.041 µM; in assay [3] (setting [8]), 0.016 µg/mL.

The values are drawn from publication PMC10215804, “Exploring Alternative Pathways to Target Bacterial Type II Topoisomerases Using NBTI Antibacterials: Beyond Halogen-Bonding Interactions” (Antibiotics, 2023).
